Reference: article PMC4581724 (Analytical biochemistry, 2015)
Read-outs that look alike come from different tables or passages of the source.

Experiments:
[1] = tested on: Y72W CrAS3MT; format: binding, Chlamydomonas reinhardtii
[2] = molecular target: T1, CrAS3MT (Chlamydomonas reinhardtii, UniProt K0BVM7); assay: biochemical; format: biochemical
T1 sequence (K0BVM7 1-379): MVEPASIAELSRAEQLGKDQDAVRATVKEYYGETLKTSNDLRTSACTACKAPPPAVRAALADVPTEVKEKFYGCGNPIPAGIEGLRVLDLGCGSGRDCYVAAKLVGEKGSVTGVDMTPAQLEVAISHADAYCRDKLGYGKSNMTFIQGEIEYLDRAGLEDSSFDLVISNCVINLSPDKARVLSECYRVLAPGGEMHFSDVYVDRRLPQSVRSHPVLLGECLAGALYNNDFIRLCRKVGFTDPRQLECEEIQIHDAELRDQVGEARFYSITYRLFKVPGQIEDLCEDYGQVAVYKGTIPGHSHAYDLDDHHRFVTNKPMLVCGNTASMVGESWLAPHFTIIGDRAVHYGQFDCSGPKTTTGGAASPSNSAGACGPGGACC

[3] = molecular target: T1, CrAS3MT; format: biochemical
[4] = tested on: SAM methyltransferases; conditions: read-out: IC50 for SAM methyltransferases; cited from earlier work

For `CSS(C)(=O)=O` [MMTS, methylmethanethiosulfonate], the “effect on quenching of Y72W by As(III)” value [1] was “significant reduction in quenching”, the “effect on the fluorescence of Y72W (quenching)” value [1] was “quenched” and the “protein fluorescence quenching at 20 μM MMTS” value [1] was “not substantially quenched”. For the same compound, the IC50 ([2]; read-out: IC50 for inhibition of SAH production (half-maximal inhibition)) was 43 µM.

In the case of `CCN1C(=O)C=CC1=O` [NEM, N-ethylmaleimide], the IC50 [2] is reported as 140 µM and the “effect on arsenic methylation” value [3] is reported as “completely inhibited”.

In the case of `[Sb+3]` [Sb(III)], the “effect on the fluorescence of Y72W (quenching)” value [1] is reported as “most quenching at the lowest concentration”.

In the case of `Nc1ncnc2c1ncn2[C@@H]1O[C@H](CC(N)CCC(N)C(=O)O)[C@@H](O)[C@H]1O` (stereo partly shown) [sinefungin, 5′-deoxy-5′-(1,4-diamino-4-carboxybutyl)adenosine], the “effect on As(III)-induced fluorescence quenching” value [1] is given as “no effect”, the “quenching of Y72W fluorescence by sinefungin” value [1] is given as “did not quench” and the IC50 [4] is given as 0.1 to 20 µM. The IC50 [2] was 0.5 µM and the “effect on formation of DMAs(V)” value [3] was “significantly inhibited”.

In the case of arsenite [As(III)], the “As(III) concentration at which activity could be detected” value [2] is reported as 10^−8 molar.
